Data as given in PubChem BioAssay (NCI).
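Cultured in 96-well plates, cells were exposed to test compound for 48 hours across five concentrations. The concentration for full growth arrest is given as TGI.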

Assays:
Experiment in all cases: DTP human tumour cell line panel, 48 h
786-0 renal = tested on: 786-0 renal
KM12 colon = tested on: KM12 colon
SR leukemia = tested on: SR leukemia
NCI-H460 lung = tested on: NCI-H460 lung
SF-268 CNS = tested on: SF-268 CNS
MOLT-4 leukemia = tested on: MOLT-4 leukemia
DMS 114 small cell lung = tested on: DMS 114 small cell lung
XF 498 CNS = tested on: XF 498 CNS
HL-60(TB) leukemia = tested on: HL-60(TB) leukemia
HOP-92 NSCLC = tested on: HOP-92 NSCLC
U251 CNS = tested on: U251 CNS
SNB-75 CNS = tested on: SNB-75 CNS
SK-MEL-28 melanoma = tested on: SK-MEL-28 melanoma
SN12C renal = tested on: SN12C renal
SK-MEL-2 melanoma = tested on: SK-MEL-2 melanoma
SNB-78 CNS = tested on: SNB-78 CNS
OVCAR-8 ovarian = tested on: OVCAR-8 ovarian
COLO 205 colon = tested on: COLO 205 colon
A549 NSCLC = tested on: A549 NSCLC
HOP-18 NSCLC = tested on: HOP-18 NSCLC
HCT-116 colon = tested on: HCT-116 colon
HCC-2998 colon = tested on: HCC-2998 colon
K-562 leukemia = tested on: K-562 leukemia
LXFL 529 NSCLC = tested on: LXFL 529 NSCLC
UACC-257 melanoma = tested on: UACC-257 melanoma
NCI-H226 lung = tested on: NCI-H226 lung
RXF 393 renal = tested on: RXF 393 renal
M19-MEL melanoma = tested on: M19-MEL melanoma
A498 renal = tested on: A498 renal
MALME-3M melanoma = tested on: MALME-3M melanoma
OVCAR-4 ovarian = tested on: OVCAR-4 ovarian
SF-539 CNS = tested on: SF-539 CNS
KM20L2 colon = tested on: KM20L2 colon
EKVX NSCLC = tested on: EKVX NSCLC
RPMI-8226 leukemia = tested on: RPMI-8226 leukemia
HT29 colon = tested on: HT29 colon
SW-620 colon = tested on: SW-620 colon
ACHN renal = tested on: ACHN renal
HCT-15 colon = tested on: HCT-15 colon
IGROV1 ovarian = tested on: IGROV1 ovarian
SF-295 CNS = tested on: SF-295 CNS
HOP-62 NSCLC = tested on: HOP-62 NSCLC
OVCAR-5 ovarian = tested on: OVCAR-5 ovarian
NCI-H522 lung = tested on: NCI-H522 lung
LOX IMVI melanoma = tested on: LOX IMVI melanoma
UO-31 renal = tested on: UO-31 renal
DLD-1 colon = tested on: DLD-1 colon
OVCAR-3 ovarian = tested on: OVCAR-3 ovarian
TK-10 renal = tested on: TK-10 renal
DMS 273 small cell lung = tested on: DMS 273 small cell lung
CCRF-CEM leukemia = tested on: CCRF-CEM leukemia
SK-MEL-5 melanoma = tested on: SK-MEL-5 melanoma
SNB-19 CNS = tested on: SNB-19 CNS
CAKI-1 renal = tested on: CAKI-1 renal
UACC-62 melanoma = tested on: UACC-62 melanoma
M14 melanoma = tested on: M14 melanoma
NCI-H23 lung = tested on: NCI-H23 lung
SK-OV-3 ovarian = tested on: SK-OV-3 ovarian

## NCCn1ccc(NC(c2ccccc2)(c2ccccc2)c2ccccc2)nc1=O
786-0 renal
  TGI: 31.8 µM
KM12 colon
  TGI: 52.3 µM
SR leukemia
  TGI: 46.2 µM
NCI-H460 lung
  TGI: 37.9 µM
SF-268 CNS
  TGI: 31.4 µM
MOLT-4 leukemia
  TGI: 44.8 µM
DMS 114 small cell lung
  TGI: 38.6 µM
XF 498 CNS
  TGI: 26.1 µM
HL-60(TB) leukemia
  TGI: 38.5 µM
HOP-92 NSCLC
  TGI: 27.4 µM
U251 CNS
  TGI: 39.4 µM
SNB-75 CNS
  TGI: 33.9 µM
SK-MEL-28 melanoma
  TGI: 35 µM
SN12C renal
  TGI: 42.3 µM
SK-MEL-2 melanoma
  TGI: 33.4 µM
SNB-78 CNS
  TGI: 42.5 µM
OVCAR-8 ovarian
  TGI: > 100 µM
COLO 205 colon
  TGI: 78.6 µM
A549 NSCLC
  TGI: 75.7 µM
HOP-18 NSCLC
  TGI: > 100 µM
HCT-116 colon
  TGI: 35.5 µM
HCC-2998 colon
  TGI: 31.9 µM
K-562 leukemia
  TGI: 44.9 µM
LXFL 529 NSCLC
  TGI: 30.3 µM
UACC-257 melanoma
  TGI: 36.2 µM
NCI-H226 lung
  TGI: 32.8 µM
RXF 393 renal
  TGI: 21.3 µM
M19-MEL melanoma
  TGI: 42.2 µM
A498 renal
  TGI: > 100 µM
MALME-3M melanoma
  TGI: 33.4 µM
OVCAR-4 ovarian
  TGI: > 100 µM
SF-539 CNS
  TGI: 31.3 µM
KM20L2 colon
  TGI: 32.2 µM
EKVX NSCLC
  TGI: 59.9 µM
RPMI-8226 leukemia
  TGI: 46.3 µM
HT29 colon
  TGI: 31.1 µM
SW-620 colon
  TGI: 35.9 µM
ACHN renal
  TGI: > 100 µM
HCT-15 colon
  TGI: > 100 µM
IGROV1 ovarian
  TGI: > 100 µM
SF-295 CNS
  TGI: 36.1 µM
HOP-62 NSCLC
  TGI: 73.8 µM
OVCAR-5 ovarian
  TGI: > 100 µM
NCI-H522 lung
  TGI: 32.8 µM
LOX IMVI melanoma
  TGI: 30.5 µM
UO-31 renal
  TGI: > 100 µM
DLD-1 colon
  TGI: > 100 µM
OVCAR-3 ovarian
  TGI: 52.6 µM
TK-10 renal
  TGI: 85 µM

## CN(C)C(=S)/N=c1\ssc(=S)n1-c1ccccc1
786-0 renal
  TGI: 30.5 µM
KM12 colon
  TGI: 22.7 µM
DMS 273 small cell lung
  TGI: 38.3 µM
NCI-H460 lung
  TGI: 33.1 µM
SF-268 CNS
  TGI: 32.8 µM
CCRF-CEM leukemia
  TGI: > 100 µM
SK-MEL-5 melanoma
  TGI: > 100 µM
DMS 114 small cell lung
  TGI: 31.1 µM
XF 498 CNS
  TGI: 27.9 µM
HL-60(TB) leukemia
  TGI: 44.4 µM
HOP-92 NSCLC
  TGI: 34.7 µM
U251 CNS
  TGI: 30.2 µM
SNB-75 CNS
  TGI: 34.1 µM
SK-MEL-28 melanoma
  TGI: 30.5 µM
SN12C renal
  TGI: 28.8 µM
SK-MEL-2 melanoma
  TGI: 21.6 µM
SNB-78 CNS
  TGI: 40 µM
SNB-19 CNS
  TGI: > 100 µM
CAKI-1 renal
  TGI: 33.3 µM
OVCAR-8 ovarian
  TGI: 28.5 µM
A549 NSCLC
  TGI: 81.8 µM
HOP-18 NSCLC
  TGI: > 100 µM
HCT-116 colon
  TGI: 27.2 µM
HCC-2998 colon
  TGI: 46.3 µM
K-562 leukemia
  TGI: 42.6 µM
LXFL 529 NSCLC
  TGI: 25.1 µM
UACC-257 melanoma
  TGI: 29.6 µM
NCI-H226 lung
  TGI: 26.9 µM
RXF 393 renal
  TGI: 33 µM
M19-MEL melanoma
  TGI: 30.4 µM
UACC-62 melanoma
  TGI: 30.6 µM
A498 renal
  TGI: 57.7 µM
MALME-3M melanoma
  TGI: 31 µM
OVCAR-4 ovarian
  TGI: 29.4 µM
SF-539 CNS
  TGI: 30.5 µM
KM20L2 colon
  TGI: 33.2 µM
EKVX NSCLC
  TGI: 43.6 µM
HT29 colon
  TGI: 37.5 µM
M14 melanoma
  TGI: 28.6 µM
SW-620 colon
  TGI: 22.6 µM
ACHN renal
  TGI: 32.1 µM
HCT-15 colon
  TGI: 28.9 µM
IGROV1 ovarian
  TGI: 39.1 µM
SF-295 CNS
  TGI: 46.6 µM
HOP-62 NSCLC
  TGI: 74.2 µM
OVCAR-5 ovarian
  TGI: 29.9 µM
NCI-H522 lung
  TGI: 27.8 µM
UO-31 renal
  TGI: 44.1 µM
DLD-1 colon
  TGI: 26.9 µM
NCI-H23 lung
  TGI: 77.5 µM
SK-OV-3 ovarian
  TGI: > 100 µM
TK-10 renal
  TGI: 31.4 µM
